Laboratory results published in patent US7022736B2, “Enzyme inhibitors” (Istituto Di Ricerche Di Biologia Molecolare P Angeletti SpA, priority 1998, dated 2006).

The compounds below were run against T1, HCV RdRp (NS5B RNA-dependent RNA polymerase) (Hepatitis C virus genotype 1b, UniProt P26663) (assay: Inhibition of hepatitis C virus RdRp (poly(A)/oligo(U), [3H]UTP incorporation)). Details: Tables I-VIII; 20 nM NS5B, 1 hour at 22° C.; read-out: IC 50 (μM), HCV-polymerase.
T1 construct: The HCV NS5B protein is the viral RdRp; made in house; host or cells: insect cells infected with recombinant baculovirus
T1 sequence (P26663 2420-3010): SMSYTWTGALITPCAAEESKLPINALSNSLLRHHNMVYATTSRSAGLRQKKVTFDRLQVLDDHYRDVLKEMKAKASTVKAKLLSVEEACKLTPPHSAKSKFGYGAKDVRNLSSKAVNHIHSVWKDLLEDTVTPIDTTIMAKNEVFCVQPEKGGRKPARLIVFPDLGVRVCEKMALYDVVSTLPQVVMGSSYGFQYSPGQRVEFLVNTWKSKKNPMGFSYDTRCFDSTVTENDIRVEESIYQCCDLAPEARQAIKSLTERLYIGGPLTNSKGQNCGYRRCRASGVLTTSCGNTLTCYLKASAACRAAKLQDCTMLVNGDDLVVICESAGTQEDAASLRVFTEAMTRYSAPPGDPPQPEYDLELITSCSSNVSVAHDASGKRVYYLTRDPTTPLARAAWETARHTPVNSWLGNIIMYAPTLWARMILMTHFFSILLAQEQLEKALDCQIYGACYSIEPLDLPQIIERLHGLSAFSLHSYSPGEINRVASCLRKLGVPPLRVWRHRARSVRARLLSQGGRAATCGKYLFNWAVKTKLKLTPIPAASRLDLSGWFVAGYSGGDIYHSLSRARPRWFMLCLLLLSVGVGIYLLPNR
Format: biochemical
Description: In initial tests, the compounds were tested to see if they were effective as inhibitors of the RNA-dependent RNA polymerase (RdRp) of hepatitis C virus (HCV). The HCV NS5B protein is the viral RdRp; compounds capable of interfering with the activity of this enzyme are thus expected to block viral replication.
Test for Inhibition of Hepatatis C Virus RdRp
WO96/37619 describes the production of recombinant HCV RdRp from insect cells infected with recombinant baculovirus encoding the enzyme. […] The reference describes a polymerisation assay using poly (A) as a template and oligo (U) as a primer. Incorporation of tritiated UTP is quantified by measuring acid-insoluble radioactivity. The present inventors have employed this assay to screen the various compounds described above as inhibitors of HCV RdRp and other virally encoded polymerases.
Incorporation of radioactive UMP was measured as follows. The standard reaction (100 μl) was carried out in a buffer containing 20 mM tris/HCl pH 7.5, 5 mM MgCl2, 1 mM DTT, 50 mM NaCl, 1 mM EDTA, 2 OU Rnasin (Promega), 0.05% Triton X-100, 1 μCi[^3H] UTP (40 Ci/mmol,NEN), 10 μM UTP and 10 μg/ml poly (A). Oligo (U)12 (1 μg/ml, Genset) was added as a primer. The final NSSB enzyme concentration was 20 nM. After 1 hour incubation at 22° C. the reaction was stopped by adding 100 μl of 20% TCA and applying samples to DE81 filters. The filters were washed thoroughly with 5% TCA containing 1M Na2HPO4/NaH2PO4, pH 7.0, rinsed with water and then ethanol, air dried, and the filter-bound radioactivity was measured in the scintillation counter. By carrying out the reaction in the presence of various concentrations of each of the compounds set out above it was possible to determine IC50 values for each compound with the formula: % residual activity=100/(1+[I]/IC50)^s where [I] is the inhibitor concentration and “s” is the slope of the inhibition curve. Test for Inhibition of Hepatitis B Virus Polymerase

Row | Compound | IC50 [µM]
1 | N#CCCCOc1ccc(-c2ccccc2)cc1C(=O)C=C(O)C(=O)O [Example 58] | 13.6
2 | CCCCCOc1ccccc1C(=O)C=C(O)C(=O)O [Example 59] | 25.3
3 | COc1cccc(C(=O)C=C(O)C(=O)O)c1 [Example 60] | 40
4 | CC(C)(C)OC(=O)Nc1cccc(C(=O)C=C(O)C(=O)O)c1 [Example 61] | 31
5 | Nc1cccc(C(=O)C=C(O)C(=O)O)c1 [Example 62] | 10
6 | N#CCCCOc1ccc(N)cc1C(=O)C=C(O)C(=O)O [Example 63] | 1.7
7 | N#Cc1ccccc1COc1cccc(C(=O)C=C(O)C(=O)O)c1 [Example 64] | 0.23
8 | N#Cc1ccccc1COc1ccccc1C(=O)C=C(O)C(=O)O [Example 65] | 45
9 | O=C(O)C(O)=CC(=O)c1cccc(NC(=O)c2ccccc2)c1 [Example 66] | 11
10 | O=C(O)C(O)=CC(=O)c1cccc(NS(=O)(=O)c2ccccc2)c1 [Example 67] | 16
11 | N#Cc1ccc(C(=O)Nc2cccc(C(=O)C=C(O)C(=O)O)c2)cc1 [Example 68] | 30
12 | N#CC(CCOc1ccccc1C(=O)C=C(O)C(=O)O)(c1ccccc1)c1ccccc1 [Example 69] | 14
13 | N#Cc1cccc(C(=O)Nc2cccc(C(=O)C=C(O)C(=O)O)c2)c1 [Example 70] | 9.2
14 | O=C(O)C(O)=CC(=O)c1cccc(OCc2cccnc2)c1 [Example 71] | 10.6
15 | N#Cc1ccccc1S(=O)(=O)Nc1cccc(C(=O)C=C(O)C(=O)O)c1 [Example 72] | 0.48
16 | O=C(O)C(O)=CC(=O)c1cccc(OCc2ccccn2)c1 [Example 73] | 5.6
17 | N#Cc1ccc(S(=O)(=O)Nc2cccc(C(=O)C=C(O)C(=O)O)c2)cc1 [Example 74] | 3.6
18 | CS(=O)(=O)Nc1cccc(C(=O)C=C(O)C(=O)O)c1 [Example 75] | 19.2
19 | O=C(O)C(O)=CC(=O)c1cccc(NS(=O)(=O)c2ccccc2Br)c1 [Example 77] | 4.8
20 | O=C(O)C(O)=CC(=O)c1cccc(NCc2cccc(C(=O)O)c2)c1 [Example 79] | 6
21 | O=C(Nc1ccccc1)Nc1cccc(C(=O)C=C(O)C(=O)O)c1 [Example 80] | 3

Row | Compound | IC50 [µM]
22 | O=C(Nc1cccc(C(=O)C=C(O)C(=O)O)c1)OCc1ccccc1 [Example 81] | 1.4
23 | CC(C)(C)OC(=O)c1sccc1COc1cccc(C(=O)C=C(O)C(=O)O)c1 [Example 82] | 19
24 | O=C(O)C(O)=CC(=O)c1cccc(OC/C=C/c2ccccc2)c1 [Example 83] | 9.4
25 | O=C(O)C(O)=CC(=O)c1cccc(OCc2ccsc2C(=O)O)c1 [Example 84] | 0.95
26 | O=C(O)C(O)=CC(=O)c1cccc(NC(=O)c2ccccc2Cl)c1 [Example 85] | 13
27 | Cc1cccc(COc2cccc(C(=O)C=C(O)C(=O)O)c2)c1F [Example 86] | 2.05
28 | O=C(O)C(O)=CC(=O)c1cccc(OCc2ccc(F)cc2Cl)c1 [Example 87] | 2.3
29 | O=C(O)C(O)=CC(=O)c1cccc(NS(=O)(=O)c2cc(Cl)ccc2Cl)c1 [Example 88] | 0.7
30 | O=C(O)C(O)=CC(=O)c1cccc(OCc2ccccc2Br)c1 [Example 89] | 3.3
31 | O=C(O)C(O)=CC(=O)c1cccc(OCc2ccccc2C(=O)O)c1 [Example 90] | 1.8
32 | Cc1ccccc1COc1cccc(C(=O)C=C(O)C(=O)O)c1 [Example 91] | 6.2
33 | COc1cccc(COc2cccc(C(=O)C=C(O)C(=O)O)c2)c1 [Example 92] | 1
34 | O=C(O)C(O)=CC(=O)c1cccc(OCc2cccc(C(F)(F)F)c2)c1 [Example 93] | 1.9
35 | O=C(O)C(O)=CC(=O)c1cccc(OCc2cccc(F)c2)c1 [Example 94] | 5.8
36 | O=C(O)C(O)=CC(=O)c1cccc(NS(=O)(=O)c2cc(Cl)sc2Cl)c1 [Example 95] | 0.48
37 | O=C(O)C(O)=CC(=O)c1cccc(OCc2ccc(-c3ccccc3)cc2)c1 [Example 96] | 50
38 | O=C(O)C(O)=CC(=O)c1cccc(OCc2ccccc2-c2ccccc2)c1 [Example 97] | 2.8
39 | O=C(O)C(O)=CC(=O)c1cccc(OCc2cc(C(=O)O)ccc2Cl)c1 [Example 98] | 1
40 | O=C(O)C(O)=CC(=O)c1cccc(OCc2ccc(C(=O)O)cc2Cl)c1 [Example 100] | 7.8
41 | O=C(O)C(O)=CC(=O)c1cccc(NS(=O)(=O)c2cccs2)c1 [Example 101] | 7
42 | O=C(O)C(O)=CC(=O)c1cccc(NS(=O)(=O)c2ccc(Cl)s2)c1 [Example 102] | 1.5

Row | Compound | IC50 [µM]
43 | O=C(O)C(O)=CC(=O)c1cccc(OCc2cc(-c3ccccc3)on2)c1 [Example 103] | 6
44 | O=C(O)C(O)=CC(=O)c1cccc(OCc2cccc(Oc3ccccc3)c2)c1 [Example 104] | 50
45 | O=C(O)C(O)=CC(=O)c1cccc(OCc2cccc[n+]2[O-])c1 [Example 105] | 13.7
46 | Cc1cc(COc2cccc(C(=O)C=C(O)C(=O)O)c2)no1 [Example 106] | 6.8
47 | O=C(O)C(O)=CC(=O)c1cccc(NS(=O)(=O)Cc2ccccc2)c1 [Example 108] | 6.9
48 | N#Cc1c(Cl)cccc1COc1cccc(C(=O)C=C(O)C(=O)O)c1 [Example 109] | 0.17
49 | O=C(O)C(O)=CC(=O)c1cccc(COc2ccccc2)c1 [Example 110] | 30
50 | O=C(O)C(O)=CC(=O)c1cccc(NS(=O)(=O)c2ccc3ccccc3c2)c1 [Example 114] | 0.5
51 | O=C(O)C(O)=CC(=O)c1cccc(NS(=O)(=O)c2ccc(C(F)(F)F)cc2Cl)c1 [Example 115] | 3.7
52 | N#Cc1ccc(-c2ccccc2)cc1COc1cccc(C(=O)C=C(O)C(=O)O)c1 [Example 116] | 0.3
53 | O=C(O)C(O)=CC(=O)c1cccc(NS(=O)(=O)c2cccc(Cl)c2Cl)c1 [Example 118] | 0.2
54 | O=C(O)C(O)=CC(=O)c1cccc(NS(=O)(=O)c2cc(Cl)c(Cl)cc2Cl)c1 [Example 119] | 0.049
55 | O=C(NCCc1ccccc1)Nc1cccc(C(=O)C=C(O)C(=O)O)c1 [Example 121] | 4
56 | Cc1cccc(C(C)Oc2cccc(C(=O)C=C(O)C(=O)O)c2)c1C#N (stereo not shown) [Example 122] | 2
57 | Cc1c(Cl)cccc1S(=O)(=O)Nc1cccc(C(=O)C=C(O)C(=O)O)c1 [Example 123] | 0.29
58 | O=C(O)C(O)=CC(=O)c1cccc(NS(=O)(=O)c2ccc(-c3ccccc3)cc2)c1 [Example 124] | 28
59 | O=C(O)C(O)=CC(=O)c1cccc(NS(=O)(=O)c2ccc(Cl)c(Cl)c2Cl)c1 [Example 125] | 0.17
60 | O=C(O)C(O)=CC(=O)c1cccc(NS(=O)(=O)c2cc(Cl)cc(Cl)c2O)c1 [Example 127] | 0.3
61 | CCOC(=O)c1ccccc1S(=O)(=O)Nc1cccc(C(=O)C=C(O)C(=O)O)c1 [Example 128] | 24
62 | COc1ccc(Cl)cc1S(=O)(=O)Nc1cccc(C(=O)C=C(O)C(=O)O)c1 [Example 129] | 1.6
63 | O=C(O)C(O)=CC(=O)c1cccc(NS(=O)(=O)c2c(Cl)sc(Cl)c2Br)c1 [Example 130] | 0.14

Same assay, conditions: Tables IXa-IXc; unit inferred; read-out: HCV (IC50)

Row | Compound | IC50 [µM]
64 | N#Cc1ccccc1COc1cccc(C(=O)C=C(O)C(=O)O)c1 [Example 64] | 0.23
65 | O=C(O)C(O)=CC(=O)c1cccc(NC(=O)c2ccccc2)c1 [Example 66] | 11
66 | N#Cc1ccccc1S(=O)(=O)Nc1cccc(C(=O)C=C(O)C(=O)O)c1 [Example 72] | 0.48
67 | O=C(Nc1ccccc1)Nc1cccc(C(=O)C=C(O)C(=O)O)c1 [Example 80] | 3
68 | O=C(O)C(O)=CC(=O)c1cccc(OCc2ccsc2C(=O)O)c1 [Example 84] | 0.95
69 | O=C(O)C(O)=CC(=O)c1cccc(NS(=O)(=O)c2cc(Cl)ccc2Cl)c1 [Example 88] | 0.7
70 | O=C(O)C(O)=CC(=O)c1cccc(OCc2ccccc2C(=O)O)c1 [Example 90] | 1.8
71 | O=C(O)C(O)=CC(=O)c1cccc(OCc2cc(-c3ccccc3)on2)c1 [Example 103] | 6
72 | N#Cc1c(Cl)cccc1COc1cccc(C(=O)C=C(O)C(=O)O)c1 [Example 109] | 0.17
73 | N#Cc1ccc(-c2ccccc2)cc1COc1cccc(C(=O)C=C(O)C(=O)O)c1 [Example 116] | 0.3
